Experimental data reported in patent US9670161B2, “5-fluoro-N-(pyridin-2-yl)pyridin-2-amine derivatives containing a sulfone group” (BAYER PHARMA AKTIENGESELLSCHAFT, priority 2012, dated 2017).

Tests used:
[1] = test system: HeLa, human cervical tumour cells; assay: Proliferation assay, HeLa (crystal violet); type: cell-based; details: 96 h, 4 days, read-out: Inhibition of HeLa cell proliferation IC50
Procedure: Cultivated tumour cells (HeLa, human cervical tumour cells, ATCC CCL-2; NCI-H460, human non-small cell lung carcinoma cells, ATCC HTB-177; A2780, human ovarian carcinoma cells, ECACC #93112519; DU 145, hormone-independent human prostate carcinoma cells, ATCC HTB-81; HeLa-MaTu-ADR, multidrug-resistant human cervical carcinoma cells, EPO-GmbH Berlin; Caco-2, human colorectal carcinoma cells, ATCC HTB-37; B16F10, mouse melanoma cells, ATCC CRL-6475) were plated at a density of 5,000 cells/well (DU145, HeLa-MaTu-ADR), 3,000 cells/well (NCI-H460, HeLa), 2,500 cells/well (A2780), 1,500 cells/well (Caco-2), or 1,000 cells/well (B16F10) in a 96-well multititer plate in 200 μL of their respective growth medium supplemented 10% fetal calf serum. After 24 hours, the cells of one plate (zero-point plate) were stained with crystal violet (see below), while the medium of the other plates was replaced by fresh culture medium (200 μl), to which the test substances were added in various concentrations (0 μM, as well as in the range of 0.001-10 μM; the final concentration of the solvent dimethyl sulfoxide was 0.5%). The cells were incubated for 4 days in the presence of test substances. Cell proliferation was determined by staining the cells with crystal violet: the cells were fixed by adding 20 μl/measuring point of an 11% glutaric aldehyde solution for 15 minutes at room temperature. After three washing cycles of the fixed cells with water, the plates were dried at room temperature. The cells were stained by adding 100 μl/measuring point of a 0.1% crystal violet solution (pH 3.0). After three washing cycles of the stained cells with water, the plates were dried at room temperature. The dye was dissolved by adding 100 μl/measuring point of a 10% acetic acid solution. The extinction was determined by photometry at a wavelength of 595 nm. The change of cell number, in percent, was calculated by normalization of the measured values to the extinction values of the zero-point plate (=0%) and the extinction of the untreated (0 μm) cells (=100%). The IC50 values (inhibitory concentration at 50% of maximal effect) were determined by means of a 4 parameter fit.

[2] = test system: Caco-2, human colorectal carcinoma cells; assay: Proliferation assay, Caco-2 (crystal violet); type: cell-based; details: 96 h, Caco-2, 4 days, read-out: Inhibition of Caco-2 cell proliferation IC50
Procedure: (§1) Cultivated tumour cells (HeLa, human cervical tumour cells, ATCC CCL-2; NCI-H460, human non-small cell lung carcinoma cells, ATCC HTB-177; A2780, human ovarian carcinoma cells, ECACC #93112519; DU 145, hormone-independent human prostate carcinoma cells, ATCC HTB-81; HeLa-MaTu-ADR, multidrug-resistant human cervical carcinoma cells, EPO-GmbH Berlin; Caco-2, human colorectal carcinoma cells, ATCC HTB-37; B16F10, mouse melanoma cells, ATCC CRL-6475) were plated at a density of 5,000 cells/well (DU145, HeLa-MaTu-ADR), 3,000 cells/well (NCI-H460, HeLa), 2,500 cells/well (A2780), 1,500 cells/well (Caco-2), or 1,000 cells/well (B16F10) in a 96-well multititer plate in 200 μL of their respective growth medium supplemented 10% fetal calf serum. […] Cell proliferation was determined by staining the cells with crystal violet: the cells were fixed by adding 20 μl/measuring point of an 11% glutaric aldehyde solution for 15 minutes at room temperature. […] The extinction was determined by photometry at a wavelength of 595 nm. The change of cell number, in percent, was calculated by normalization of the measured values to the extinction values of the zero-point plate (=0%) and the extinction of the untreated (0 μm) cells (=100%). […]

[3] = test system: NCI-H460, human non-small cell lung carcinoma cells; assay: Proliferation assay, NCI-H460 (crystal violet); type: cell-based; details: 96 h, NCI-H460, 4 days, read-out: Inhibition of NCI-H460 cell proliferation IC50
Procedure: as §1

[4] = test system: B16F10, mouse melanoma cells; assay: Proliferation assay, B16F10 (crystal violet); type: cell-based; details: B16-F10, 96 h, B16F10, 4 days, read-out: Inhibition of B16F10 cell proliferation IC50
Procedure: as §1

[5] = test system: HeLa-MaTu-ADR, multidrug-resistant human cervical carcinoma cells; assay: Proliferation assay, HeLa-MaTu-ADR (crystal violet); type: cell-based; details: 96 h, 4 days, read-out: Inhibition of HeLa-MaTu-ADR cell proliferation IC50
Procedure: as §1

[6] = test system: DU 145, hormone-independent human prostate carcinoma cells; assay: Proliferation assay, DU145 (crystal violet); type: cell-based; details: DU-145, 96 h, DU145, 4 days, read-out: Inhibition of DU145 cell proliferation IC50
Procedure: as §1

[7] = test system: A2780, human ovarian carcinoma cells; assay: Proliferation assay, A2780 (crystal violet); type: cell-based; details: 96 h, A2780, 4 days, read-out: Inhibition of A2780 cell proliferation IC50
Procedure: as §1

Caco-2 permeation assay = type: in vitro ADME; details: human, pH 7.2
Procedure: 4. Caco-2 Permeation Assay:
Caco-2 cells (purchased from DSMZ Braunschweig, Germany) were seeded at a density of 4.5×10^4 cells per well on 24 well insert plates, 0.4 μm pore size, and grown for 15 days in DMEM medium supplemented with 10% fetal bovine serum, 1% GlutaMAX (100×, GIBCO), 100 U/mL penicillin, 100 μg/mL streptomycin (GIBCO) and 1% non essential amino acids (100×). Cells were maintained at 37° C. in a humified 5% CO2 atmosphere. Medium was changed every 2-3 day. Before running the permeation assay, the culture medium was replaced by a FCS-free hepes-carbonate transport buffer (pH 7.2). For assessment of monolayer integrity the transepithelial electrical resistance (TEER) was measured. Test compounds were predissolved in DMSO and added either to the apical or basolateral compartment in final concentration of 2 μM in transport buffer. Before and after 2 h incubation at 37° C. samples were taken from both compartments. Analysis of compound content was done after precipitation with methanol by LC/MS/MS analysis. Permeability (Papp) was calculated in the apical to basolateral (A→B) and basolateral to apical (B→A) directions. The apparent permeability was calculated using following equation: Papp=(Vr/Po)(1/S)(P2/t)
Where Vr is the volume of medium in the receiver chamber, Po is the measured peak area or height of the test drug in the donor chamber at t=o, S the surface area of the monolayer, P2 is the measured peak area of the test drug in the acceptor chamber after 2 h of incubation, and t is the incubation time. The efflux ratio basolateral (B) to apical (A) was calculated by dividing the Papp B-A by the Papp A-B. In addition the compound recovery was calculated. The following reference compounds were used for the classification of the permeability class: Antipyrine, Pyrazosin, Verapamil, Fluvastatin, Cimetidine, Ranitidine, Atenolol, Sulfasalazine.

[8] = Caco-2 monolayer, 2 μM test compound, 2 h

SMILES	IC50 [1] [nM]	IC50 [2] [nM]	IC50 [3] [nM]	IC50 [4] [nM]	IC50 [5] [nM]	IC50 [6] [nM]	IC50 [7] [nM]	efflux ratio at 2 h, 2 μM (Caco-2 permeation assay; Papp B-A / Papp A-B, Caco-2, 2 μM test compound)	Papp A→B at 2 h, 2 μM (Caco-2 permeation assay; [8]) [×10⁻⁶ cm/s]	Papp B→A at 2 h, 2 μM (Caco-2 permeation assay; [8]) [×10⁻⁶ cm/s]
COc1cc(F)ccc1-c1cc(Nc2cc(CS(C)(=O)=O)cc(C(F)(F)F)n2)ncc1F [Example 4, 5-Fluoro-4-(4-fluoro-2-methoxyphenyl)-N-{4-[(methylsulfonyl)methyl]-6-(trifluoromethyl)pyridin-2-yl}pyridin-2-amine]	16	–	–	–	–	–	–	–	–	–
COc1cc(F)ccc1-c1cc(Nc2cc(CS(C)(=O)=O)ccn2)ncc1F [Example 1, 5-Fluoro-4-(4-fluoro-2-methoxyphenyl)-N-{4-[(methylsulfonyl)methyl]pyridin-2-yl}pyridin-2-amine]	84	70	62	100	37	56	28	0.49	20.7	10.1

Further lines, results first:

IC50 [1] [nM]	IC50 [2] [nM]	IC50 [3] [nM]	IC50 [4] [nM]	IC50 [5] [nM]	IC50 [6] [nM]	IC50 [7] [nM]	efflux ratio at 2 h, 2 μM (Caco-2 permeation assay; Papp B-A / Papp A-B, Caco-2, 2 μM test compound)	Papp A→B at 2 h, 2 μM (Caco-2 permeation assay; [8]) [×10⁻⁶ cm/s]	Papp B→A at 2 h, 2 μM (Caco-2 permeation assay; [8]) [×10⁻⁶ cm/s]	SMILES
100	–	–	–	–	–	–	–	–	–	COc1cc(F)ccc1-c1cc(Nc2cc(CS(C)(=O)=O)cc(F)n2)ncc1F [Example 3, 5-Fluoro-4-(4-fluoro-2-methoxyphenyl)-N-{6-fluoro-4-[(methylsulfonyl)methyl]pyridin-2-yl}pyridin-2-amine]
< 30	–	–	–	–	–	–	–	–	–	COc1cc(F)ccc1-c1cc(Nc2cc(CS(C)(=O)=O)cc(C(F)F)n2)ncc1F [Example 5, N-{6-(Difluoromethyl)-4-[(methylsulfonyl)methyl]pyridin-2-yl}-5-fluoro-4-(4-fluoro-2-methoxyphenyl)pyridin-2-amine]
37	37	94	100	59	84	–	–	–	–	COc1cc(F)ccc1-c1cc(Nc2cc(CS(C)(=O)=O)cc(C)n2)ncc1F [Example 2, 5-Fluoro-4-(4-fluoro-2-methoxyphenyl)-N-{6-methyl-4-[(methylsulfonyl)methyl]pyridin-2-yl}pyridin-2-amine]
